Assay results: ChEMBL document CHEMBL1201862, “PubChem BioAssay data set” (2004)
The source made the active and inactive calls. Rule as the data show it, for most assays here: actives have a measured EC50 and inactives only a lower limit.

Assays:
[1] = biological target: T1, Short transient receptor potential channel 4 (Mus musculus, UniProt Q9QUQ5); assay: block of DAMGO-driven TRPC4 calcium entry – cell-based, HEK293 TRPC4/mu-opioid, Fluo-4 calcium, dose response (AID 434942); format: functional;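 also: potency of inhibitors blocking the TRPC4 calcium response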
T1 sequence (Q9QUQ5 whole entry): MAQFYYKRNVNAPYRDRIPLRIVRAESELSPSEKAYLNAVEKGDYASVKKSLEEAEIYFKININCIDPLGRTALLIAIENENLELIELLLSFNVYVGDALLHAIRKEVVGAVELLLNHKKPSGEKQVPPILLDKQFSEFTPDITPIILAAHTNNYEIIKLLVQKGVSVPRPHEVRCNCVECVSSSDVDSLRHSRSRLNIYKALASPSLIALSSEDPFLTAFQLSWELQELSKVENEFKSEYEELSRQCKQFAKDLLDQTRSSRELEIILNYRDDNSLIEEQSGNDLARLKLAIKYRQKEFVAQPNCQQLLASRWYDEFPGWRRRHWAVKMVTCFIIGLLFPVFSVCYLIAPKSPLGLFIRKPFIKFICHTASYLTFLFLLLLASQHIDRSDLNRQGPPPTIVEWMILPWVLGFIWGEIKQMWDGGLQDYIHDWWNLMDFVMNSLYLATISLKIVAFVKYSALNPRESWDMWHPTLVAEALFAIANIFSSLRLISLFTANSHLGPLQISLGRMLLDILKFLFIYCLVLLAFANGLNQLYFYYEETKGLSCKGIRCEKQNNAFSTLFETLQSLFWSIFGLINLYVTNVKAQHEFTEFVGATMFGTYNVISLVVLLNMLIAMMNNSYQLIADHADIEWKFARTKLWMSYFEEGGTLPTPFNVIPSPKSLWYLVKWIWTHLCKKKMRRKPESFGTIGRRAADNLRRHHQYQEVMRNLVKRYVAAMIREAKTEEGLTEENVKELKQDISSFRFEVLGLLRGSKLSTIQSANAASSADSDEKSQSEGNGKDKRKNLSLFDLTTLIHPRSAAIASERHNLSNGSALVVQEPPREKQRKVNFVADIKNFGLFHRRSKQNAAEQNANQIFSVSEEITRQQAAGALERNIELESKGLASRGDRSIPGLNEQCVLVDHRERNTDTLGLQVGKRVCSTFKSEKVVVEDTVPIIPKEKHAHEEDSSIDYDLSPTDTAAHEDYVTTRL

[2] = biological target: T2, Carboxy-terminal domain RNA polymerase II polypeptide A small phosphatase 1 (Homo sapiens, UniProt Q9GZU7); assay: CTDSP1 inhibitors, concentration-response, biochemical, absorbance readout, ultra-high-throughput screen actives (AID 540297); format: functional
T2 sequence (Q9GZU7 whole entry): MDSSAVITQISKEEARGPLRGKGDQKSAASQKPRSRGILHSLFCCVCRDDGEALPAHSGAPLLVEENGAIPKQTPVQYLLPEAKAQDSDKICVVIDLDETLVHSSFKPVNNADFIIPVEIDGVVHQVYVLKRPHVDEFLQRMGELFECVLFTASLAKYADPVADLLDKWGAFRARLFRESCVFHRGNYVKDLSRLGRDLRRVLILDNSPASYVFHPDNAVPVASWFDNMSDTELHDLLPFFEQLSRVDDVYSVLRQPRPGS

Streptococcus = assay: GAS UMAA2166 growth inhibition – luminescence, BacTiterGlo, counter-screen for streptokinase expression inhibitor project, dose response (AID 1915); format: functional, organism-based;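 also: potency for reduction of bacterial viability or growth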
[3] = system: Streptococcus sp. 'group A'; assay: Streptococcus pyogenes SK(-)GAS viability under kanamycin – luminescence, BacTiterGlo, confirmation, counter-screen for streptokinase expression inhibitor project, dose response (AID 1900); format: functional, organism-based
H4 = assay: Luminescence Cell-Based Dose Response HTS to Identify Activators of 5'UTR Stem-Loop Driven Prion Protein mRNA Translation in H4 Neuroglioblastoma Cells. [Related pubchem assays: 1829 (Project Summary), 1814 (Primary HTS)]; format: functional; settings: Homo sapiens
[4] = Luminescence Cell-Based Dose Confirmation HTS to Identify Activators of 5'UTR Stem-Loop Driven Alpha-Synuclein mRNA Translation in H4 Neuroglioblastoma Cells. [Related pubchem assays: 1829 (Project Summary), 1814 (Primary HTS)]; format: functional
[5] = Luminescence Cell-Based Dose Response HTS to Identify Activators of Luciferase Translation or Activity in H4 […] Cells. [Related pubchem assays: 1829 (Project Summary), 1814 (Primary HTS)]; format: functional
[6] = luciferase reporter signal suppression in cells – H4 neuroglioma cells, luminescence, dose response (AID 1990); format: functional, cell-based
[7] = biological target: T3, Heat shock factor protein 1 (Mus musculus, UniProt P38532); assay: enhancement of HSF1-driven luciferase signal – cell-based, NIH3T3, luminescence, dose retest, confirmation (AID 435004); format: functional;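 also: stress induced by proteasome inhibitor MG132 added 30 min after compound; luciferase reporter driven by HSF1 response element in NIH3T3 cells; actives raise luminescence as potentiators of the MG132 stress response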
T3 sequence (P38532 whole entry): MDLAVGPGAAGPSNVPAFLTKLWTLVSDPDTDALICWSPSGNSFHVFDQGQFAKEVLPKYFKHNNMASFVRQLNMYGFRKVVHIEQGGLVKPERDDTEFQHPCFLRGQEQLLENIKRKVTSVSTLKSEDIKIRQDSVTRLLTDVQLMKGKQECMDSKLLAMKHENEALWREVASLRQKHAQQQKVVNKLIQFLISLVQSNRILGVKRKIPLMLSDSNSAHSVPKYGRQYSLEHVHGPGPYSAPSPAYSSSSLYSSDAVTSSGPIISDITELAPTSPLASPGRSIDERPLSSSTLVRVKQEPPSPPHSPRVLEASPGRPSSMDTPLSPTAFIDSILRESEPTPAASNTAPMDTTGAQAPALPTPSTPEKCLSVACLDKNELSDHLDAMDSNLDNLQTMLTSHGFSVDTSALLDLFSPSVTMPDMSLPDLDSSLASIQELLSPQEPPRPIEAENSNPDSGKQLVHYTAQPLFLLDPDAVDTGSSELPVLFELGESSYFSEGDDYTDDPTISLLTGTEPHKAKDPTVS

[8] = alpha-synuclein stem-loop luciferase translation blockers – H4 neuroglioma cells, luminescence, confirmation (AID 1988); format: functional, cell-based
INS1 = assay: INS-1E survival protection against cytokine death – cell-based, luminescence, retest, dose response (AID 449756); format: functional; settings: Rattus norvegicus;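 also: cell death triggered by IL-1 beta plus TNF-alpha plus IFN-gamma mixture; protective hits raise ATP signal compared with cytokine alone wells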
[9] = Luminescence Cell-Based Dose Response HTS to Identify Inhibitors of 5'UTR Stem-Loop Driven Prion Protein mRNA Translation in H4 Neuroglioblastoma Cells. [Related pubchem assays: 1827 (Project Summary), 1813 (Primary HTS)]; format: functional
Streptokinase A = biological target: T4, Streptokinase A (Streptococcus pyogenes serotype M1, UniProt P10520); assay: viability-normalized secreted streptokinase activity reduction – plasminogen activation absorbance, OD405, dose response (AID 1914); format: functional, Streptococcus pyogenes M1 GAS;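 also: secreted streptokinase activity via plasminogen activation per viability signal from cell pellet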
T4 sequence (P10520 whole entry): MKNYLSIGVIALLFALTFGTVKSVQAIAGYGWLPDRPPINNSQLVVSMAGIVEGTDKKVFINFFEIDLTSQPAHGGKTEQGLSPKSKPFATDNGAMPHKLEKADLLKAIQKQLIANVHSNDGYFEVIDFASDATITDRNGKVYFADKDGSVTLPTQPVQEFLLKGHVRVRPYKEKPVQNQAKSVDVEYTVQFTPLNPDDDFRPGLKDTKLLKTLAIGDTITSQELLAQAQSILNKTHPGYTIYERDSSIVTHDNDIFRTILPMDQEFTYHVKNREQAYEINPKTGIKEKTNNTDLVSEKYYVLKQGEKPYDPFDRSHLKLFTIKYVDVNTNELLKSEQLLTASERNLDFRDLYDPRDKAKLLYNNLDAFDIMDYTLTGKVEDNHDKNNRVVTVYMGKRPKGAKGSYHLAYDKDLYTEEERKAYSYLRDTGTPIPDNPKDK

[10] = biological target: T5, Replicative DNA helicase DnaB (Mycobacterium tuberculosis, UniProt P9WMR3); assay: DnaB intein splicing inhibitors, dose response, biochemical, cell-free fluorescence (AID 449749); format: functional
T5 sequence (P9WMR3 whole entry): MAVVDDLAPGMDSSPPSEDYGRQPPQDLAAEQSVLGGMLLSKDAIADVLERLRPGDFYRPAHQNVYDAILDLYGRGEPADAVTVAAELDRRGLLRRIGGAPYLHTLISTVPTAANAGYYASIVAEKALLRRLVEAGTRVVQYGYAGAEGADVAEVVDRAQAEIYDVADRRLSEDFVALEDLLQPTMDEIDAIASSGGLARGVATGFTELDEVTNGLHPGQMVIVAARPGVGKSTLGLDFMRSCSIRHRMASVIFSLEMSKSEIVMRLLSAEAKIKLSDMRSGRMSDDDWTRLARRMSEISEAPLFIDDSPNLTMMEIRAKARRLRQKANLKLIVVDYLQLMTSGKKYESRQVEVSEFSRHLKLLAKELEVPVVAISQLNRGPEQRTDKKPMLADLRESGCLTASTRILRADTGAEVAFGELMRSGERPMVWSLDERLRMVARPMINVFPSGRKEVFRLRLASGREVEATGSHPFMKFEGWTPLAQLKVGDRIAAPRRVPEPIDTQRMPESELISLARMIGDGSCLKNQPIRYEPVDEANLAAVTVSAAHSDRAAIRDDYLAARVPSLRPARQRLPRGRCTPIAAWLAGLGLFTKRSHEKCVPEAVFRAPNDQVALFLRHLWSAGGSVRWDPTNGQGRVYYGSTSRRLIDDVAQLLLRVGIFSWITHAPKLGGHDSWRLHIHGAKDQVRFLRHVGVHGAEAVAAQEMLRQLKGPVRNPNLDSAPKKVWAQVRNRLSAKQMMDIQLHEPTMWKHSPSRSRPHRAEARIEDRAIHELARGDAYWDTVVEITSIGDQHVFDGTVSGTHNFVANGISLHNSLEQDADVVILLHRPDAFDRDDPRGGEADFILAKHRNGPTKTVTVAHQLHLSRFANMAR

Protein RecA = biological target: T6, Protein RecA (Mycobacterium tuberculosis, UniProt P9WHJ3); assay: Fluorescence Cell-Free Homogeneous Dose Retest to Identify Inhibitors of RecA-Intein Splicing Activity. [Related pubchem assays (depositor defined):AID2097, AID2223, AID489010, AID492950]; format: functional
T6 sequence (P9WHJ3 whole entry): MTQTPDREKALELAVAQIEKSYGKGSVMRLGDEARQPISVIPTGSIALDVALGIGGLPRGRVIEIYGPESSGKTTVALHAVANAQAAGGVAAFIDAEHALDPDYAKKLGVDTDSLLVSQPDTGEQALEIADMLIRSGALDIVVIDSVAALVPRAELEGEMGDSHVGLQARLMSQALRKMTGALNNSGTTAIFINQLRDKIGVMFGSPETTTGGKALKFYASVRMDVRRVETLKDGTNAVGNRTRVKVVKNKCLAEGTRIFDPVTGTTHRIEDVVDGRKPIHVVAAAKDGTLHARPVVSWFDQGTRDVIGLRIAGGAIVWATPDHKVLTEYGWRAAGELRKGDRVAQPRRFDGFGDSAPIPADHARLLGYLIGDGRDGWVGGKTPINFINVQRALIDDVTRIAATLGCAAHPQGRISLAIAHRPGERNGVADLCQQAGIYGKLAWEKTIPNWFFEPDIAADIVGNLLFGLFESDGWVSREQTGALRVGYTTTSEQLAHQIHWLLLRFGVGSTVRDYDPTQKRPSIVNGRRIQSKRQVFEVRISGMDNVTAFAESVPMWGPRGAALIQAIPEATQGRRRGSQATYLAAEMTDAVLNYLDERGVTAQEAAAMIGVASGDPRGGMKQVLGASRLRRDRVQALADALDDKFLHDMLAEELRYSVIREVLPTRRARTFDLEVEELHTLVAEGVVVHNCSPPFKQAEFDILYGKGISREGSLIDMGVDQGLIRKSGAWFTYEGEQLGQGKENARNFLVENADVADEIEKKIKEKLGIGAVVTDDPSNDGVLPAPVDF

[11] = Luminescence Cell-Based Dose Retest to Confirm Inhibitors of Cancer Stem Cells. [Related pubchem assays (depositor defined):AID2717, AID2721]; format: functional; settings: Homo sapiens

Compound: FC(F)Oc1ccccc1N=C(S)Nc1cccc(Cl)c1Cl
- EC50 [1]: 7.5 µM (active)

Compound: COc1ccc2c(c1)[N+](C)(C)C(C)(C)C=C2C
- IC50 [2]: 3.14 µM (active)

Compound: CC(C)C(=O)Nc1ccc(C(=O)Nc2nnc(C(C)(C)C)s2)cc1
- EC50 [1]: 0.237 µM (active)

Compound: Cc1c(Cl)c(C(F)F)nn1CC(=O)NC1C(=O)N2C(C(=O)O)=C(CSc3nnnn3C)CSC12 (stereo not given)
- IC50 [2]: 6.48 µM (active)
- EC50 (Streptococcus): 0.106 µM (active)
- EC50 [3]: < 0.06 µM (active)

Compound: c1csc(-c2nc(NCC3CCCO3)c3ccccc3n2)c1 (stereo not given)
- EC50 [1]: 4.73 µM (active)

Compound: O=C(N/N=C/c1ccc(Cl)cc1)c1ccc2c(c1)OCO2
- IC50 [2]: 6.93 µM (active)
- EC50 (H4): 2.44 µM (active)
- EC50 [4]: > 120 µM (not active)
- EC50 [5]: 1.87 µM (active)

Compound: O=C(Cn1nnc(-c2ccc(NC(=O)c3ccccc3F)cc2)n1)NCc1ccc(F)cc1
- IC50 [2]: 4.75 µM (active)

Compound: COc1ccc(C2CC(c3ccccc3)Nc3nc(NC(=O)c4cccs4)nn32)cc1 (stereo not given)
- EC50 [1]: 1.06 µM (active)

Compound: CN(C)S(=O)(=O)c1cccc(NC(=O)COC(=O)/C=C/c2ccco2)c1
- IC50 [2]: 21.1 µM (active)

Compound: NCCCn1c(C(=O)c2cc(Cl)c(N)c(Cl)c2)c2ccc([N+](=O)[O-])cc2[n+]1[O-]
- EC50 [6]: 5.24 µM (active)
- EC50 [7]: 46.8 µM (active)
- EC50 (Streptococcus): 5.08 µM (active)
- EC50 [8]: 2.06 µM (active)
- AC50 (INS1): 4.16 µM (active)
- EC50 [3]: 2.8 µM (active)
- EC50 [9]: > 120 µM (not active)
- EC50 (Streptokinase A): > 150 µM (not active)

Compound: CC1CCCN1CC#CC(O)(c1ccccc1)c1ccccc1 (stereo not given)
- EC50 [1]: 0.188 µM (active)

Compound: O=C(CSc1nnc(-c2ccc(S(=O)(=O)N3CCCC3)cc2)o1)NCc1ccco1
- IC50 [2]: 16.3 µM (active)

Compound: FC(F)(F)c1ccc(C2[C@H]3CN(Cc4cccnc4)[C@H](c4ccccc4)C34CC2(c2cccnc2)C4)cc1 (stereo not given in full)
- AC50 [10]: 3.46 µM (active)
- EC50 (Protein RecA): 24.1 µM (active)
- EC50 (Streptococcus): 12 µM (active)
- EC50 [3]: 2.85 µM (active)
- AC50 [11]: 3.07 µM (active)
- EC50 (Streptokinase A): 6.65 µM (active)
